Tests used:
Settings in all cases: substrate uM: Ia 2, AMMC 20, CEC 40, MFC 50, BFC 50, BQ 40, BzRes 50; 30 min; enzyme 50 nM
Rat CYP2D1 = target: T1, Rat CYP2D1 (Rattus norvegicus, UniProt P10633); assay: Turnover of fluorometric substrates by rat CYP2D1
T1 sequence (P10633 1-504): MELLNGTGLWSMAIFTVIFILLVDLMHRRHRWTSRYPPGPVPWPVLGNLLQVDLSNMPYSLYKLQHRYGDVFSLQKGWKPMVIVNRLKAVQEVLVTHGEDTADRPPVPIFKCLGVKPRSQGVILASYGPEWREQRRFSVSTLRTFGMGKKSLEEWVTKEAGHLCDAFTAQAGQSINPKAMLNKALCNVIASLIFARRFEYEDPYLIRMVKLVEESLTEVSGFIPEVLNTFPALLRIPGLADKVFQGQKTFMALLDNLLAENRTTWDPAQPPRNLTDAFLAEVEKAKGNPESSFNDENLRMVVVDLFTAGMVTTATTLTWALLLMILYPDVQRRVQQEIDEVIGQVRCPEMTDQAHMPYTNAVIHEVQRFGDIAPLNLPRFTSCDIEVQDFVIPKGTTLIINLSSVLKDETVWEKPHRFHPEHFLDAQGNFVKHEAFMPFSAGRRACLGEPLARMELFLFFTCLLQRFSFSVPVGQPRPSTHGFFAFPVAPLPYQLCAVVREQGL

Rat CYP2C11 = target: T2, Rat CYP2C11 (Rattus norvegicus, UniProt P08683); assay: Turnover of fluorometric substrates by rat CYP2C11
T2 sequence (P08683 1-500): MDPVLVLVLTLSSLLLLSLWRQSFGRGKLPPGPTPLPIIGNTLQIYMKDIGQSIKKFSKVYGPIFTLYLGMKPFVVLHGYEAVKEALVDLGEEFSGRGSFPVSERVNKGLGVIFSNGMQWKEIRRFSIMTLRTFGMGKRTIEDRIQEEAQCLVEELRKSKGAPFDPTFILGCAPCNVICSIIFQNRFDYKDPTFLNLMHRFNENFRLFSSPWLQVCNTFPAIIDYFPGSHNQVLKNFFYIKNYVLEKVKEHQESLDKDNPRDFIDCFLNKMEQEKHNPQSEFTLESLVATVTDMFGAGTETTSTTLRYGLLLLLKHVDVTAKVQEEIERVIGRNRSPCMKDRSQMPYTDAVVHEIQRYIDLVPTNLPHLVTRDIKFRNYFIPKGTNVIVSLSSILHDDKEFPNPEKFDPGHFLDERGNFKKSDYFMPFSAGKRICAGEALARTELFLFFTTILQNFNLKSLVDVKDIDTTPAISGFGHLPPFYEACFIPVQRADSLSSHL

Rat CYP2A2 = Rat CYP2A2 (Rattus norvegicus, UniProt P15149); assay: Turnover of fluorometric substrates by rat CYP2A2
Rat CYP2C13 = target: T3, Rat CYP2C13 (Rattus norvegicus, UniProt P20814); assay: Turnover of fluorometric substrates by rat CYP2C13
T3 sequence (P20814 1-490): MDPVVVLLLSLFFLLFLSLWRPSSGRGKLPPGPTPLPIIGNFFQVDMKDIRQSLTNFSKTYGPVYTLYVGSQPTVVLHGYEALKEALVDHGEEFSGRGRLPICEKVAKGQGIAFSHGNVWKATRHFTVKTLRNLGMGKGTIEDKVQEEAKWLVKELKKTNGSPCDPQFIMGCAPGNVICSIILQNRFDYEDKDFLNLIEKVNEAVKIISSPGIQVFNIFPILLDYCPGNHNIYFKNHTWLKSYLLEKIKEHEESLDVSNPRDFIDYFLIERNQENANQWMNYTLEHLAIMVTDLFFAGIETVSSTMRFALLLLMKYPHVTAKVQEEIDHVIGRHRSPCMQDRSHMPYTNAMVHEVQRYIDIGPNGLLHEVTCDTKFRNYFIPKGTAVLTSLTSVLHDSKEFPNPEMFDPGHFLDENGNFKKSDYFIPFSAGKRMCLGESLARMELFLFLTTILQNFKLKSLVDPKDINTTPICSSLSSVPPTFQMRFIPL

Rat CYP3A1 = target: T4, Rat CYP3A1 (Rattus norvegicus, UniProt P04800); assay: Turnover of fluorometric substrates by rat CYP3A1
T4 sequence (P04800 1-504): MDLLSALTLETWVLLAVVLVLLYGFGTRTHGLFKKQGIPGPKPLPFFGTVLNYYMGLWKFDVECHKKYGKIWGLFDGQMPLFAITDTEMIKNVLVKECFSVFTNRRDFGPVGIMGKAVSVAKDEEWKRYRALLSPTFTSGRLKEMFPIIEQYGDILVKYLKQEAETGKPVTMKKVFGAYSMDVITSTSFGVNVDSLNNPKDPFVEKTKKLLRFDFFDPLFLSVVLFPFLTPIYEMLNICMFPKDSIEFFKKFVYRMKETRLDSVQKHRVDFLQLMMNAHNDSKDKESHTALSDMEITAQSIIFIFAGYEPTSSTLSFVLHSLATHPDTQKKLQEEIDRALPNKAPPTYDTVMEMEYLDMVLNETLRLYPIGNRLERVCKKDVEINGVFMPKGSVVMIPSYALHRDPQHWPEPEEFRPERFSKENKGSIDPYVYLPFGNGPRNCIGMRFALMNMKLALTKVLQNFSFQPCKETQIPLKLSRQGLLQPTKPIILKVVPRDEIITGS

Rat CYP1A2 = target: T5, Rat CYP1A2 (Rattus norvegicus, UniProt P04799); assay: Turnover of fluorometric substrates by rat CYP1A2
T5 sequence (P04799 1-513): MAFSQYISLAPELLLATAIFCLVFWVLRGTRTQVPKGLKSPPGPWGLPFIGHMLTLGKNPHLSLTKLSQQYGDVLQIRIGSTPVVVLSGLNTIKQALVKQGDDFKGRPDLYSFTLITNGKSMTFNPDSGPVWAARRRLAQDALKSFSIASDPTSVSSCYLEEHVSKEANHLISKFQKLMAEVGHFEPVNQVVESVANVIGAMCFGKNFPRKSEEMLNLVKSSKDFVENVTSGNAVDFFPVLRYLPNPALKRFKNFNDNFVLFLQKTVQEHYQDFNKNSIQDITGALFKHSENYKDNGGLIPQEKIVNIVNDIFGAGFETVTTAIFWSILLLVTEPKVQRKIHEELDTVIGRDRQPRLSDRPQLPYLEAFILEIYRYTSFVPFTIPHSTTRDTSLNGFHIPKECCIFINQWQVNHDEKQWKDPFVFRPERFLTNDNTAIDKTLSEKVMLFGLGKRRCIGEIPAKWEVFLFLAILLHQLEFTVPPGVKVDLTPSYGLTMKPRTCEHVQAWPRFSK

Sequence of Rat CYP2A2 (P15149 whole entry): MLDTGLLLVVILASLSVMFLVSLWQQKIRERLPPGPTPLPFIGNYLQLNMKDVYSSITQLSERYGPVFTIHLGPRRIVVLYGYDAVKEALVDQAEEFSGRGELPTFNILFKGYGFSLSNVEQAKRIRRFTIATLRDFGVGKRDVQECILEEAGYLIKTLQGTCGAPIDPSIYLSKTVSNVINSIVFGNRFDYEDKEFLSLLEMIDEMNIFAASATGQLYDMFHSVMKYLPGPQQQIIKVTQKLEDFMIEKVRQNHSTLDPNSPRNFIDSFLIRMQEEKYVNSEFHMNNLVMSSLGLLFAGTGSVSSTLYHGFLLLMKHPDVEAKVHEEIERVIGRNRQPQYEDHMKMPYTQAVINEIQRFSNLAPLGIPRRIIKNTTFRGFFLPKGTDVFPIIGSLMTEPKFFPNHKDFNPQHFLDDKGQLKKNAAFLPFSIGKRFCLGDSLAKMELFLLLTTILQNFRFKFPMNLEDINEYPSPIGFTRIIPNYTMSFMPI

| SMILES | Turnover Numbers, CYP2D1 (Rat CYP2D1) | Turnover Numbers, CYP2C11 (Rat CYP2C11) | Turnover Numbers, CYP2A2 (Rat CYP2A2) | Turnover Numbers, CYP2C13 (Rat CYP2C13) | Turnover Numbers, CYP3A1 (Rat CYP3A1) | Turnover Numbers, CYP1A2 (Rat CYP1A2) |
| --- | --- | --- | --- | --- | --- | --- |
| O=c1cc(C(F)(F)F)c2ccc(OCc3ccccc3)cc2o1 [BFC, 7-Benzyloxy-4-trifluoromethylcoumarin] | 0.25 pmol product/min/pmol enzyme | 0.34 pmol product/min/pmol enzyme | 0.26 pmol product/min/pmol enzyme | 0.74 pmol product/min/pmol enzyme | 1.33 pmol product/min/pmol enzyme | – |
| c1ccc(COc2ccc3cccnc3c2)cc1 [BQ, 7-Benzyloxyquinoline] | 5.3 pmol product/min/pmol enzyme | – | 2.8 pmol product/min/pmol enzyme | – | 8.4 pmol product/min/pmol enzyme | 2.3 pmol product/min/pmol enzyme |
| O=c1ccc2nc3ccc(OCc4ccccc4)cc3oc-2c1 [BzRes, 7-benzyloxyresorufin] | 0.02 pmol product/min/pmol enzyme | 0.05 pmol product/min/pmol enzyme | – | 0.01 pmol product/min/pmol enzyme | 0.06 pmol product/min/pmol enzyme | 0.62 pmol product/min/pmol enzyme |
| CCOc1ccc2cc(C#N)c(=O)oc2c1 [CEC, 7-Ethoxy-3-cyanocoumarin] | – | 0.55 pmol product/min/pmol enzyme | 0.04 pmol product/min/pmol enzyme | – | 0.08 pmol product/min/pmol enzyme | 1.38 pmol product/min/pmol enzyme |
| O=C(OCc1ccccc1)c1ccccc1-c1c2ccc(=O)cc-2oc2cc(OCc3ccccc3)ccc12 [Compound Ia, O-Benzylfluorescein Benzyl Ester] | 0.159 pmol product/min/pmol enzyme | 0.065 pmol product/min/pmol enzyme | 0.030 pmol product/min/pmol enzyme | 0.003 pmol product/min/pmol enzyme | 0.027 pmol product/min/pmol enzyme | 0.041 pmol product/min/pmol enzyme |
| COc1ccc2c(C(F)(F)F)cc(=O)oc2c1 [MFC, 7-Methoxy-4-trifluoromethylcoumarin] | 0.09 pmol product/min/pmol enzyme | 5.57 pmol product/min/pmol enzyme | 0.08 pmol product/min/pmol enzyme | 0.21 pmol product/min/pmol enzyme | – | 1.32 pmol product/min/pmol enzyme |

Source: patent US6420131B1, “Use of fluorescein aryl ethers in high throughput cytochrome P450 inhibition assays” (Gentest Corporation, priority 1999, dated 2002)
